ChEMBL document CHEMBL4507327 (2021)

Columns and labels:
[1] = target: Muscarinic acetylcholine receptor M3 (Homo sapiens) (UniProt P20309); conditions: Compound concentration 10.0 uM
[2] = target: Dual specificity protein kinase CLK4 (Homo sapiens, UniProt Q9HAZ1); assay: CLK4(CLK4IGF1) Takeda global kinase panel
Myosin-IIIb = Myosin-IIIb (Homo sapiens, UniProt Q8WXR4); assay: MYO3B(MY3BLGA1) Takeda global kinase panel
[3] = target: Microtubule-associated serine/threonine-protein kinase 4 (Homo sapiens, UniProt O15021); assay: MAST4(MAS4LGRD) Takeda global kinase panel
[4] = target: Fibroblast growth factor receptor 3 (Homo sapiens, UniProt P22607); assay: FGFR3(FGF3LGF1) Takeda global kinase panel
[5] = target: Ribosomal protein S6 kinase alpha-6 (Homo sapiens, UniProt Q9UK32); assay: RSK4(R6A6LGF1) Takeda global kinase panel
[6] = target: Cyclin-dependent kinase 7 (Homo sapiens, UniProt P50613); assay: CDK7(CDK7CGS1) Takeda global kinase panel
SRSF protein kinase 2 = SRSF protein kinase 2 (Homo sapiens, UniProt P78362); assay: SRPK2(SRP2IGRL) Takeda global kinase panel
[7] = target: Serine/threonine-protein kinase SBK1 (Homo sapiens, UniProt Q52WX2); assay: SBK(SBK1LGY1) Takeda global kinase panel
[8] = target: Serine/threonine-protein kinase MARK2 (Homo sapiens, UniProt Q7KZI7); assay: MARK2(MAR2LGY1) Takeda global kinase panel
[9] = target: Interleukin-1 receptor type 1 (Homo sapiens) (UniProt P14778); assay: Interleukin IL-1 R1 Eurofins-Panlabs radioligand binding assay; set-up: ligand concentration 0.1 nM; conditions: Compound concentration 10.0 uM
[10] = target: Dual specificity tyrosine-phosphorylation-regulated kinase 2 (Homo sapiens, UniProt Q92630); assay: DYRK2(DYR2LGY1) Takeda global kinase panel
[11] = target: Serine/threonine-protein kinase NLK (Homo sapiens, UniProt Q9UBE8); assay: NLK(NLK1LGI5) Takeda global kinase panel
[12] = target: Mixed lineage kinase domain-like protein (Homo sapiens, UniProt Q8NB16); assay: MLKL(MLKLPHY1) Takeda global kinase panel
[13] = target: Protein kinase C beta type (Homo sapiens, UniProt P05771); assay: PKCbeta(PRKBPHY3) Takeda global kinase panel
[14] = target: Mitogen-activated protein kinase kinase kinase 7 (Homo sapiens, UniProt O43318); assay: TAK1(M3K7CHY1) Takeda global kinase panel
Wee1-like protein kinase = Wee1-like protein kinase (Homo sapiens, UniProt P30291); assay: Wee1(WEE1LGF1) Takeda global kinase panel
[15] = target: Purinergic P2Y (Rattus norvegicus) (UniProt O35811+Q9EPX4+P49651+Q63371+P41232+O35881+Q6GUG4); assay: Inhibition of Purinergic P2Y at compound concentration of 10.0 uM in the Eurofins-Panlabs radioligand binding assay (Eurofins_assay_268820); type: protein assay; set-up: ligand concentration 0.1 nM; conditions: Compound concentration 10.0 uM
[16] = target: Endothelin receptor type B (Homo sapiens) (UniProt P24530); conditions: Compound concentration 10.0 uM
[17] = target: Serine/threonine-protein kinase PAK 4 (Homo sapiens, UniProt O96013); assay: PAK4(PAK4CGY1) Takeda global kinase panel
[18] = target: Mu-type opioid receptor (Homo sapiens) (UniProt P35372); conditions: Compound concentration 10.0 uM
[19] = target: Bone morphogenetic protein receptor type-1B (Homo sapiens, UniProt O00238); assay: BMPR1B(BM1BLGF1) Takeda global kinase panel
[20] = target: Mitogen-activated protein kinase kinase kinase kinase 1 (Homo sapiens, UniProt Q92918); assay: HPK1(M4K1LGY1) Takeda global kinase panel
[21] = target: Casein kinase I isoform delta (Homo sapiens, UniProt P48730); assay: CK1delta(CS1DLGI1) Takeda global kinase panel
[22] = target: Tyrosine-protein kinase CSK (Homo sapiens, UniProt P41240); assay: CSK(CSK1LGF1) Takeda global kinase panel
[23] = target: Dual specificity mitogen-activated protein kinase kinase 6 (Homo sapiens, UniProt P52564); assay: MKK6 [MAP2K6(M2K6LGF1)] Takeda global kinase panel
Ephrin type-A receptor 8 = Ephrin type-A receptor 8 (Homo sapiens, UniProt P29322); assay: EphA8(EPA8LGF1) Takeda global kinase panel
[24] = target: Mitogen-activated protein kinase 14 (Homo sapiens, UniProt Q16539); assay: p38alpha(MP14LGI1) Takeda global kinase panel
[25] = target: Tyrosine-protein kinase Srms (Homo sapiens, UniProt Q9H3Y6); assay: Srm(SRMSLGY1) Takeda global kinase panel
[26] = target: cGMP-dependent protein kinase 2 (Homo sapiens, UniProt Q13237); assay: PKG2(PRG2LHY1) Takeda global kinase panel
[27] = target: Kappa-type opioid receptor (Homo sapiens) (UniProt P41145); conditions: Compound concentration 10.0 uM
[28] = target: Serine/threonine-protein kinase PAK 6 (Homo sapiens, UniProt Q9NQU5); assay: PAK6(PAK6CGY1) Takeda global kinase panel
[29] = target: Interferon-induced, double-stranded RNA-activated protein kinase (Homo sapiens, UniProt P19525); assay: PKR(EIK2LGY1) Takeda global kinase panel
[30] = target: Protein kinase C delta type (Homo sapiens, UniProt Q05655); assay: PKCdelta(PRKDPFP1) Takeda global kinase panel
[31] = target: Ribosomal protein S6 kinase alpha-2 (Homo sapiens, UniProt Q15349); assay: RSK3(R6A1CGE1) Takeda global kinase panel
[32] = target: Calcium/calmodulin-dependent protein kinase type IV (Homo sapiens, UniProt Q16566); assay: CaMK4(CAM4LGY1) Takeda global kinase panel
[33] = target: Dual specificity protein kinase CLK1 (Homo sapiens, UniProt P49759); assay: CLK1(CLK1LGF1) Takeda global kinase panel
[34] = target: Tyrosine-protein kinase Tec (Homo sapiens, UniProt P42680); assay: TEC(TEC1CGD1) Takeda global kinase panel
[35] = target: Serine/threonine-protein kinase ULK1 (Homo sapiens, UniProt O75385); assay: ULK1(ULK1LGF1) Takeda global kinase panel
Ephrin type-A receptor 7 = Ephrin type-A receptor 7 (Homo sapiens, UniProt Q15375); assay: EphA7(EPA7LGF1) Takeda global kinase panel
[36] = target: Bone morphogenetic protein receptor type-2 (Homo sapiens, UniProt Q13873); assay: BMPR2(BMR2LGN1) Takeda global kinase panel
[37] = target: Dual specificity testis-specific protein kinase 2 (Homo sapiens, UniProt Q96S53); assay: TESK2(TES2LGRL) Takeda global kinase panel
[38] = target: Mitogen-activated protein kinase 6 (Homo sapiens, UniProt Q16659); assay: ERK3(MAP6LHY1) Takeda global kinase panel
[39] = target: Proto-oncogene tyrosine-protein kinase ROS (Homo sapiens, UniProt P08922); assay: Ros(ROS1PHY1) Takeda global kinase panel
[40] = target: Death-associated protein kinase 2 (Homo sapiens, UniProt Q9UIK4); assay: DAPK2(DAP2LGF1) Takeda global kinase panel
Homo sapiens = organism: Homo sapiens; conditions: Compound concentration 10.0 uM

Chain of Bone morphogenetic protein receptor type-2 (Q13873 whole entry): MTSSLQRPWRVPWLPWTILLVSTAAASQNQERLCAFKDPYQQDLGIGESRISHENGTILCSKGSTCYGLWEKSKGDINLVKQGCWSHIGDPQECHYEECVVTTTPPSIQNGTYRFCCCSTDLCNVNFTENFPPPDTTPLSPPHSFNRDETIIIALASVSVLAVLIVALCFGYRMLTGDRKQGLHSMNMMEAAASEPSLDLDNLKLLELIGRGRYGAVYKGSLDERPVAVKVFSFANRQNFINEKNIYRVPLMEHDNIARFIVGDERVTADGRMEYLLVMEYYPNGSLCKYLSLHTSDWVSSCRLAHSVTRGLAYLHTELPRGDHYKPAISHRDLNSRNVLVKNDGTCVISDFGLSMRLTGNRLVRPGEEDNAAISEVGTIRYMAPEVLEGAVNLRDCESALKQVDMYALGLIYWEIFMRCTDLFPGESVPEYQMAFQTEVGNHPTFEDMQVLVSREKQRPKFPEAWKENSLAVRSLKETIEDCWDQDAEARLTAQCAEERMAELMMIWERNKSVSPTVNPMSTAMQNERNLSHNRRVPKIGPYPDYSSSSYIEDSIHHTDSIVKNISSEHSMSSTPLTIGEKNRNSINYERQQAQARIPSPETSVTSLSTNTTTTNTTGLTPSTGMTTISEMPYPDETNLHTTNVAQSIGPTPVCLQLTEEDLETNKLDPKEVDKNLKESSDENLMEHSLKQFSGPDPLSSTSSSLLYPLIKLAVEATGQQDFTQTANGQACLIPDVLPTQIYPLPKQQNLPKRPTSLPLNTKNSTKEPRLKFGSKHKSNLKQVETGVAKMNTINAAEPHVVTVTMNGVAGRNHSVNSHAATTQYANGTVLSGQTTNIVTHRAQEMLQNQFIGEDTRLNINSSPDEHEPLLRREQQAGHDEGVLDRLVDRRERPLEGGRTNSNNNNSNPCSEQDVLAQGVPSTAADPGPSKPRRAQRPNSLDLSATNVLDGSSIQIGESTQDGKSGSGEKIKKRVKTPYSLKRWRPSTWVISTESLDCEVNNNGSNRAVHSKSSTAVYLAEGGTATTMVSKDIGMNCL
Chain of cGMP-dependent protein kinase 2 (Q13237 whole entry): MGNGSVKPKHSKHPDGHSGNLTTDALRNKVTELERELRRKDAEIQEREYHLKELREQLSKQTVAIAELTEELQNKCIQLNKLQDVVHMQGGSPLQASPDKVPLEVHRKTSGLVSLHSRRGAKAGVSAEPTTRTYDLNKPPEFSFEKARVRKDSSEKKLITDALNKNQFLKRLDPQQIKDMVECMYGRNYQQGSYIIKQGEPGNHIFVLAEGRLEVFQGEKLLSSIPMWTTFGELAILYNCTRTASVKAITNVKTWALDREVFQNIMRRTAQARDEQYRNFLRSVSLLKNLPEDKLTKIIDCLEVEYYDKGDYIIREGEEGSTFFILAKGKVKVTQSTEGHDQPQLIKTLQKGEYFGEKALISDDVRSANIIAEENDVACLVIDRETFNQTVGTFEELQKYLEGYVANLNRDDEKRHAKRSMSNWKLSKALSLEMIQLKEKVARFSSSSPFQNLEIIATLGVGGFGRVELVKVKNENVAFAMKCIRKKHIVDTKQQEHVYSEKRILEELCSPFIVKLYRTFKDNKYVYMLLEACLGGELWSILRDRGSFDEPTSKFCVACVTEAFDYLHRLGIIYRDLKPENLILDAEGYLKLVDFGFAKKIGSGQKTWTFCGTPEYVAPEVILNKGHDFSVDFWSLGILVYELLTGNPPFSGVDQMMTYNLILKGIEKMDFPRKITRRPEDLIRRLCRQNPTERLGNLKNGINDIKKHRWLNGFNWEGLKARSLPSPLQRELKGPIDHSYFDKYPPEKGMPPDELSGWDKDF
Chain of Serine/threonine-protein kinase PAK 4 (O96013 whole entry): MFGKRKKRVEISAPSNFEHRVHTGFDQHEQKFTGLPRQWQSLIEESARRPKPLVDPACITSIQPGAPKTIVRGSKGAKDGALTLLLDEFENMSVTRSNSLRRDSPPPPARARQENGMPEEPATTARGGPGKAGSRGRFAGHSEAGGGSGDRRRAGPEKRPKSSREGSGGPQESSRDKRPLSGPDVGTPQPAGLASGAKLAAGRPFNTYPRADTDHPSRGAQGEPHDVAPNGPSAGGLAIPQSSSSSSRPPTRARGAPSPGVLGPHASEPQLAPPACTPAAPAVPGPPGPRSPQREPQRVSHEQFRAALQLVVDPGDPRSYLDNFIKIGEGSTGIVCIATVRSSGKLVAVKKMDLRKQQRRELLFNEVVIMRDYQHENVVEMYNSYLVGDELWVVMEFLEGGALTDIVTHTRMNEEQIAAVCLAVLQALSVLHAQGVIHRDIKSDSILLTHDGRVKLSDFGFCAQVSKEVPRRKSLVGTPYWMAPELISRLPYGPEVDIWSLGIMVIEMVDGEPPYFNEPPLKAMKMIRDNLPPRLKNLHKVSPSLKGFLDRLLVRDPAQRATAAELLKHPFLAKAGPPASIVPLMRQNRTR
Chain of Mixed lineage kinase domain-like protein (Q8NB16 whole entry, the tested form may be a part): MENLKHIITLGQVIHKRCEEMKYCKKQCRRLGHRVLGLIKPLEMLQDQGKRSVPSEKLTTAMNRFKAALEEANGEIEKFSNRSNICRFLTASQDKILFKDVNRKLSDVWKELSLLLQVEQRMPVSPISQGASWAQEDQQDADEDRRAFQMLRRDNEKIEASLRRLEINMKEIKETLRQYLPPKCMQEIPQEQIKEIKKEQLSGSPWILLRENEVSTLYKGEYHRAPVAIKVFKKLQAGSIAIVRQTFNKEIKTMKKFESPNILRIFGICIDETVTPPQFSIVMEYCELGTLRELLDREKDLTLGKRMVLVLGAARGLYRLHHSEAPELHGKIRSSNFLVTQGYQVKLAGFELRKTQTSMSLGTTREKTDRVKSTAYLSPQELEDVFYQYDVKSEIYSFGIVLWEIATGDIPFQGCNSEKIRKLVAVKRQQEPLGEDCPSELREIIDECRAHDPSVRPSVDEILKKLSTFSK
Chain of Mu-type opioid receptor (Homo sapiens) (P35372 whole entry): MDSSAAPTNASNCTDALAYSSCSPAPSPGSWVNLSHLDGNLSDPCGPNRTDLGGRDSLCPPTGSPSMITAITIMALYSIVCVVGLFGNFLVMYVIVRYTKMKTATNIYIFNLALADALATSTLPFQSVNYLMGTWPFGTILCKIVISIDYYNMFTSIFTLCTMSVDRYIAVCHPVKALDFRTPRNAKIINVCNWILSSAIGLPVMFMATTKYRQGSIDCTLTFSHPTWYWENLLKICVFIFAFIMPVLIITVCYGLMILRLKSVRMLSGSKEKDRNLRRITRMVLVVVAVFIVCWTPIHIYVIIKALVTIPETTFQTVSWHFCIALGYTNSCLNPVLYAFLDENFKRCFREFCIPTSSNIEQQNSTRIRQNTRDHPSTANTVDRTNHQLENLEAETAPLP
Chain of Bone morphogenetic protein receptor type-1B (O00238 whole entry): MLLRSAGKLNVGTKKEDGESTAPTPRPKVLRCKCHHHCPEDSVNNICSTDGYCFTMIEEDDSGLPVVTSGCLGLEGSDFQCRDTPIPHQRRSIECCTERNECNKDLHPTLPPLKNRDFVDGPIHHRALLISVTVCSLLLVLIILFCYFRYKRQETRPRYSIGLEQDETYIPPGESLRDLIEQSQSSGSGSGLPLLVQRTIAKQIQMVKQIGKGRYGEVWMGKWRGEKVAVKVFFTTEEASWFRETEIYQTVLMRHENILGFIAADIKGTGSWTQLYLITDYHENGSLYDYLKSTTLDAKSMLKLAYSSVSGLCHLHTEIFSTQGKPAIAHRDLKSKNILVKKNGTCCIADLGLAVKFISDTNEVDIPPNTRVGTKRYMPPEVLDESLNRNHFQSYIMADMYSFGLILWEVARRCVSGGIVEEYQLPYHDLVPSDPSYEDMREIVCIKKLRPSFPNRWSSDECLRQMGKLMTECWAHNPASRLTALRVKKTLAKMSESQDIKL
Chain of Serine/threonine-protein kinase PAK 6 (Q9NQU5 whole entry): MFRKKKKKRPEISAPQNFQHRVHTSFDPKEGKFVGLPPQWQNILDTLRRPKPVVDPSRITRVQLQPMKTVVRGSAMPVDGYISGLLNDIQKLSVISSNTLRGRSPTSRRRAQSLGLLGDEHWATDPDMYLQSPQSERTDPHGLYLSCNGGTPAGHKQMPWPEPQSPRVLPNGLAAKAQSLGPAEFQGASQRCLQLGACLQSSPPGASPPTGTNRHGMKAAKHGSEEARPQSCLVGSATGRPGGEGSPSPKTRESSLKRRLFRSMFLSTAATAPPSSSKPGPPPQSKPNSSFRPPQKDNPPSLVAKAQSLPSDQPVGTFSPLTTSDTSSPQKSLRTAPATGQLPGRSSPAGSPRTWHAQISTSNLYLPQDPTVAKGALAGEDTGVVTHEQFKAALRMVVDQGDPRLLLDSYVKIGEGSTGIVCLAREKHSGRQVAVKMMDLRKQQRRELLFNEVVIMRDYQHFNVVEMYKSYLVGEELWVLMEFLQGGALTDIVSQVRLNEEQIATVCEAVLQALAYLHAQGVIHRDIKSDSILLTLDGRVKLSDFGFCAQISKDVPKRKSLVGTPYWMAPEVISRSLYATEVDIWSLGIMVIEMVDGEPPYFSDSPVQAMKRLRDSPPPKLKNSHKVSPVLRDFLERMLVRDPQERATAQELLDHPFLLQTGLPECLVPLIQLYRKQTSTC
Chain of Dual specificity protein kinase CLK4 (Q9HAZ1 whole entry): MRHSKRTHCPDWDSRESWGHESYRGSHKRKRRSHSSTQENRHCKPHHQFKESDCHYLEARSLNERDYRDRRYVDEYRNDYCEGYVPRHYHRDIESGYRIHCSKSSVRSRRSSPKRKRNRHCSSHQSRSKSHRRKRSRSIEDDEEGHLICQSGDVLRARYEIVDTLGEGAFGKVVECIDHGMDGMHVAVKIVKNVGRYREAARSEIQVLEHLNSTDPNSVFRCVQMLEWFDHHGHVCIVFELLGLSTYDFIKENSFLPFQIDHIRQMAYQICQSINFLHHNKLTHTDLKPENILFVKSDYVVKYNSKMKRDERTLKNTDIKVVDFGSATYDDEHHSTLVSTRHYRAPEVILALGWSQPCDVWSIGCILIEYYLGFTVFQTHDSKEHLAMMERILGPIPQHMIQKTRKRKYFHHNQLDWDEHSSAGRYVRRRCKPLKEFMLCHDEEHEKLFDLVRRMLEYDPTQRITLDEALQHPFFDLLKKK

Compound: CN1C(=O)[C@@H](N2CCc3cn(Cc4ccccc4)nc3C2=O)COc2ccccc21 [TP-030-1]
- inhibition [1]: 1%
- IC50 [2]: 1000 nM
- IC50 (Myosin-IIIb): 1000 nM
- IC50 [3]: 1000 nM
- IC50 [4]: 1000 nM
- IC50 [5]: 1000 nM
- IC50 [6]: 1000 nM
- IC50 (SRSF protein kinase 2): 1000 nM
- IC50 [7]: 1000 nM
- IC50 [8]: 1000 nM
- inhibition [9]: -7%
- IC50 [10]: 1000 nM
- IC50 [11]: 1000 nM
- IC50 [12]: 1000 nM
- IC50 [13]: 1000 nM
- IC50 [14]: 1000 nM
- IC50 (Wee1-like protein kinase): 1000 nM
- inhibition [15]: -5%
- inhibition [16]: 0%
- IC50 [17]: 1000 nM
- inhibition [18]: 19%
- IC50 [19]: 1000 nM
- IC50 [20]: 1000 nM
- IC50 [21]: 1000 nM
- IC50 [22]: 1000 nM
- IC50 [23]: 1000 nM
- IC50 (Ephrin type-A receptor 8): 1000 nM
- IC50 [24]: 1000 nM
- IC50 [25]: 1000 nM
- IC50 [26]: 1000 nM
- inhibition [27]: 3%
- IC50 [28]: 1000 nM
- IC50 [29]: 1000 nM
- IC50 [30]: 1000 nM
- IC50 [31]: 1000 nM
- IC50 [32]: 1000 nM
- IC50 [33]: 1000 nM
- IC50 [34]: 1000 nM
- IC50 [35]: 1000 nM
- IC50 (Ephrin type-A receptor 7): 1000 nM
- IC50 [36]: 1000 nM
- IC50 [37]: 1000 nM
- IC50 [38]: 1000 nM
- IC50 [39]: 1000 nM
- IC50 [40]: 1000 nM
- inhibition (Homo sapiens): 21%

Compound: CN1C(=O)[C@@H](N2CCc3cn(CC4CCS(=O)(=O)CC4)nc3C2=O)COc2ccccc21 [TP-030n]
- inhibition [1]: -3%
- IC50 [2]: 1000 nM
- IC50 (Myosin-IIIb): 1000 nM
- IC50 [3]: 1000 nM
- IC50 [4]: 1000 nM
- IC50 [5]: 1000 nM
- IC50 [6]: 1000 nM
- IC50 (SRSF protein kinase 2): 1000 nM
- IC50 [7]: 1000 nM
- IC50 [8]: 1000 nM
- inhibition [9]: -9%
- IC50 [10]: 1000 nM
- IC50 [11]: 1000 nM
- IC50 [12]: 1000 nM
- IC50 [13]: 1000 nM
- IC50 [14]: 1000 nM
- IC50 (Wee1-like protein kinase): 1000 nM
- inhibition [15]: 8%
- inhibition [16]: -3%
- IC50 [17]: 1000 nM
- inhibition [18]: 4%
- IC50 [19]: 1000 nM
- IC50 [20]: 1000 nM
- IC50 [21]: 1000 nM
- IC50 [22]: 1000 nM
- IC50 [23]: 1000 nM
- IC50 (Ephrin type-A receptor 8): 1000 nM
- IC50 [24]: 1000 nM
- IC50 [25]: 1000 nM
- IC50 [26]: 1000 nM
- inhibition [27]: 3%
- IC50 [28]: 1000 nM
- IC50 [29]: 1000 nM
- IC50 [30]: 1000 nM
- IC50 [31]: 1000 nM
- IC50 [32]: 1000 nM
- IC50 [33]: 1000 nM
- IC50 [34]: 1000 nM
- IC50 [35]: 1000 nM
- IC50 (Ephrin type-A receptor 7): 1000 nM
- IC50 [36]: 1000 nM
- IC50 [37]: 1000 nM
- IC50 [38]: 1000 nM
- IC50 [39]: 1000 nM
- IC50 [40]: 1000 nM
- inhibition (Homo sapiens): 2%
